These results are taken from patent publication US20190119200A1, “TERTIARY AMIDES AND METHOD OF USE” (AbbVie Inc., priority 2016, published 2019).

Assay [1] has as its system LPA-induced MCP-1 in NRK-49F cells. The assay can be described thus: LPA-induced MCP-1 AlphaLISA assay. The following applies: Rattus norvegicus, final LPA 10 μM, 7 hours; for Emax: read-out: Maximum Inhibition. It is filed as cell-based. As for the experimental part:
Two days prior to the experiment, NRK-49F cells were plated at 8,000 cells/well in 100 μL of growth medium [DMEM (Life Technologies #11995) with 5% dFBS (Life Technologies #30067-334), 100 units/mL penicillin/streptomycin (Life Technologies #15140122)] in 96-well clear flat bottom polystyrene TC-treated microplate (Corning® #3599) and incubated in humidified 10% CO2 at 37° C. One day prior to the experiment, the cell medium was removed and serum free medium [100 μL/well, DMEM (Life Technologies #11995) with 0.1% fatty acid free BSA (Sigma #A6003)] was added with continued incubation in humidified 10% CO2 at 37° C. overnight. On the day of the assay, test compounds were 1:3 serially diluted in 100% DMSO using a BioTek Precision™ system and then transferred (equivalent volume of DMSO as controls) to a plate in serum free medium [DMEM with 0.1% fatty acid free BSA] using a Biomek® NX workstation to give a 2× compound solution. The cell culture medium was removed, and cells were pre-treated with 50 μL/well of 2× compound in serum free medium [DMEM with 0.1% fatty acid free BSA] at 37° C. for 30 minutes. Following the incubation, 50 μL/well of 20 μM LPA diluted in serum free medium [DMEM with 0.1% fatty acid free BSA] was added to the cells. Serum free medium [DMEM with 0.1% fatty acid free BSA] was used as substitution for low control wells while 20 µM LPA was added to high control wells and test compound wells. 200 µM LPA was added to EC100 wells. Final DMSO concentration was 1% in every well. Final LPA concentration in test compound wells and high control wells was 10 μM. […] After the incubation, cell supernatant was transferred to a new 96 well polypropylene plate (Greiner #651201) where it was sealed and stored at −80° C. On the detection day, 5 μL of thawed cell supernatant was transferred to a new white opaque 384-well microplate (Perkin Elmer #6007299). An AlphaLISA® mouse/rat CCL2/MCP1, Immunoassay Research kit (PerkinElmer #AL509F) was used. A mixture (20 μL/well) of AlphaLISA® Anti-Analyte Accept beads (10 μg/mL final) and Biotinylated Antibody Anti-Analyte (freshly prepared, 1 nM final) was added. The mixture in the wells was mixed and then incubated at room temperature for 1 hour. Then SA-Donor beads (25 μL/well, 40 μg/mL final) were added giving a final volume of 50 μL/well. The contents of the wells were mixed and then incubated at room temperature for 0.5 hour (protect from light). The plate was read using the default Envision™ Alpha protocol (PerkinElmer). IC50 values were calculated from curve fits of the ratio data using a four-parameter logistic Hill equation (Assay Explorer 3.3 Client).
In general terms: Bead proximity is the source of the signal in Alpha formats.

A further assay concerns the target T1, LPAR1 (Homo sapiens, UniProt Q92633).
T1 construct: host or cells: U2OS
The assay can be described thus: LPAR1 FLIPR Assay. The following applies: U2OS cells stably expressing LPAR1, LPA (EC80), Calcium 6 FLIPR dye; for Emax: read-out: Maximum Inhibition. It is filed as cell-based. Summed up:
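U2OS cells stably expressing LPAR1 were loaded with Calcium 6 dye for 2 h at 37° C, preincubated 3 min with compound (11-point 3-fold series), then stimulated with LPA at EC80. Fluorescence at 515-575 nm was recorded by FLIPR; IC50 came from four-parameter logistic fits of ratio data.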

Structures are written as SMILES.

For orientation: IC50 means the concentration needed to halve the response being measured.

T1 sequence (Q92633 whole entry): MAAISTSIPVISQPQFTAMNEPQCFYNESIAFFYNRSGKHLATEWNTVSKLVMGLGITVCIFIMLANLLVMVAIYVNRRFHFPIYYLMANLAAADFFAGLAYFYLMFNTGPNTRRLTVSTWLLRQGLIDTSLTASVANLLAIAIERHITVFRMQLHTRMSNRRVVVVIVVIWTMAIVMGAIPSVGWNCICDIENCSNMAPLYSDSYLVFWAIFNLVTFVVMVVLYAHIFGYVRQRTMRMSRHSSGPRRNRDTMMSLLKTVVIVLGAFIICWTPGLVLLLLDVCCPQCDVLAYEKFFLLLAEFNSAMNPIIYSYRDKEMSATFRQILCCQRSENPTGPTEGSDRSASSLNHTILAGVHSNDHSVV

With `CCCCC(CCCN(CCCc1ccccc1)C(=O)c1cc(OC)c(C)c(OC)c1)C(=O)O` (centres unmarked) [Example 93, 2-{3-[(3,5-dimethoxy-4-methylbenzoyl)(3-phenylpropyl)amino]propyl}hexanoic Acid], in assay [1], it took 0.819 µM to reach half-maximal inhibition (IC50) and the Emax amounted to 84%. Moreover, at LPAR1, the IC50 amounted to 0.043 µM and the Emax was 96%.

For the compound `COc1cc(C(=O)N(CCCCC(=O)O)Cc2ccccc2)cc(OC)c1C` [Example 94, 5-[benzyl(3,5-dimethoxy-4-methylbenzoyl)amino]pentanoic Acid], the IC50 in assay [1] was more than 10 µM; at LPAR1, more than 30 µM. Further, the Emax in assay [1] is 13%; on LPAR1, 2%.

With `COc1cc(C(=O)N(CCCCC(=O)O)CCc2ccccc2)cc(OC)c1C` [Example 95, 5-[(3,5-dimethoxy-4-methylbenzoyl)(2-phenylethyl)amino]pentanoic Acid], the IC50 is more than 10 µM in assay [1] and more than 30 µM at LPAR1. Further, the Emax in assay [1] is 18%; at LPAR1 it was 10%.

With `COc1cc(C(=O)N(CCCCC(=O)O)CCCCc2ccccc2)cc(OC)c1C` [Example 96, 5-[(3,5-dimethoxy-4-methylbenzoyl)(4-phenylbutyl)amino]pentanoic Acid], in assay [1], the half-inhibitory concentration (IC50) was more than 10 µM and the Emax came out at 52%. Also, at LPAR1, the half-maximal inhibitory concentration (IC50) worked out at 19.9 µM and the Emax stood at 62%.

`CCCCC(C)(CCCN(CCCc1ccccc1)C(=O)c1cc(OC)c(C)c(OC)c1)C(=O)O` (centres unmarked) [Example 97, 2-{3-[(3,5-dimethoxy-4-methylbenzoyl)(3-phenylpropyl)amino]propyl}-2-methylhexanoic Acid]: in assay [1], the half-maximal inhibitory concentration (IC50) worked out at 0.036 µM and the Emax is 94%. Also, on LPAR1, the IC50 turned out to be 0.116 µM and the Emax turned out to be 97%.

As for `COc1ccc(C2(C(=O)N(CCCCC(=O)O)CCCc3cccc(Cl)c3)CC2)cc1` [Example 102, 5-{[3-(3-chlorophenyl)propyl][1-(4-methoxyphenyl)cyclopropane-1-carbonyl]amino}pentanoic Acid], the IC50 in assay [1] is 1.55 µM; at LPAR1, 0.047 µM. Further, the Emax amounted to 80% in assay [1] and 85% on LPAR1.

As for `COc1ccc(C2(C(=O)N(CCCCC(=O)O)CCCc3ccccc3)CC2)c(F)c1` [Example 103, 5-{[1-(2-fluoro-4-methoxyphenyl)cyclopropane-1-carbonyl](3-phenylpropyl)amino}pentanoic Acid], the 50% inhibitory concentration (IC50) came to 5.46 µM in assay [1] and 0.068 µM at LPAR1. Further, the Emax worked out at 62% in assay [1] and 75% at LPAR1.

As to `CCC1CCC(NC(=O)CN(CCCc2ccccc2)C(=O)c2cc(OC)c(C)c(OC)c2)(C(=O)O)CC1` (centres unmarked) [Example 104, 1-{[N-(3,5-dimethoxy-4-methylbenzoyl)-N-(3-phenylpropyl)glycyl]amino}-4-ethylcyclohexane-1-carboxylic Acid], in assay [1], the 50% inhibitory concentration (IC50) worked out at 2.9 µM and the Emax was determined as 74%. Also, on LPAR1, the IC50 was 0.094 µM and the Emax was determined as 95%.

For the compound `COc1ccc(C2(C(=O)N(CCCCC(=O)O)CCCc3ccccc3)CC2)cc1Cl` [Example 107, 5-{[1-(3-chloro-4-methoxyphenyl)cyclopropane-1-carbonyl](3-phenylpropyl)amino}pentanoic Acid], in assay [1], the half-inhibitory concentration (IC50) amounted to 3.59 µM and the Emax was determined as 71%. In addition, at LPAR1, the IC50 worked out at 0.078 µM and the Emax amounted to 85%.

As to `COc1cc(C(=O)N(CCCc2ccccc2Cl)CCSCC(=O)O)cc(OC)c1C` [Example 112, [(2-{[3-(2-chlorophenyl)propyl](3,5-dimethoxy-4-methylbenzoyl)amino}ethyl)sulfanyl]acetic Acid], in assay [1], the IC50 is 0.996 µM and the Emax was found to be 78%. At LPAR1, the IC50 came to 0.315 µM and the Emax stood at 77%.

Take `COc1cc(C(=O)N(CCCc2c(F)cccc2F)CCSCC(=O)O)cc(OC)c1C` [Example 113, [(2-{[3-(2,6-difluorophenyl)propyl](3,5-dimethoxy-4-methylbenzoyl)amino}ethyl)sulfanyl]acetic Acid]: in assay [1], the half-maximal inhibitory concentration (IC50) is 1.01 µM and the Emax came to 86%. Further, on LPAR1, the half-inhibitory concentration (IC50) was determined as 0.032 µM and the Emax was 87%.

On to `COc1cc(C(=O)N(CCCCC(=O)NS(=O)(=O)C2CC2)CCCc2ccccc2)cc(OC)c1C` [Example 119, N-{5-[(cyclopropanesulfonyl)amino]-5-oxopentyl}-3,5-dimethoxy-4-methyl-N-(3-phenylpropyl)benzamide], for which, in assay [1], the IC50 came to 1.17 µM and the Emax is 80%. Moreover, on LPAR1, the 50% inhibitory concentration (IC50) is 0.097 µM and the Emax worked out at 92%.

Take `COc1cc(C(=O)N(CCCc2ccccc2)C[C@H](O)CCC(=O)O)cc(OC)c1C` [Example 120, (4R)-5-[(3,5-dimethoxy-4-methylbenzoyl)(3-phenylpropyl)amino]-4-hydroxypentanoic Acid]: in assay [1], inhibition was half-maximal at 5.24 µM (IC50) and the Emax turned out to be 65%. On LPAR1, the half-inhibitory concentration (IC50) amounted to 0.039 µM and the Emax was 81%.

As for `CCS(=O)(=O)NC(=O)CCCCN(CCCc1ccccc1)C(=O)c1cc(OC)c(C)c(OC)c1` [Example 123, N-{5-[(ethanesulfonyl)amino]-5-oxopentyl}-3,5-dimethoxy-4-methyl-N-(3-phenylpropyl)benzamide], in assay [1], the IC50 was determined as 0.793 µM and the Emax amounted to 85%. Further, at LPAR1, the IC50 was 0.046 µM and the Emax was 94%.

As for `COc1cc(C(=O)N(CCCCC(=O)NS(=O)(=O)C(C)C)CCCc2ccccc2)cc(OC)c1C` [Example 124, 3,5-dimethoxy-4-methyl-N-{5-oxo-5-[(propane-2-sulfonyl)amino]pentyl}-N-(3-phenylpropyl)benzamide], in assay [1], the concentration for half-maximal inhibition (IC50) worked out at 1.15 µM and the Emax amounted to 88%. Besides, on LPAR1, the half-maximal inhibitory concentration (IC50) amounted to 0.059 µM and the Emax was found to be 92%.

As for `COc1cc(C(=O)N(CCCc2cc(F)cc(F)c2)CCSCC(=O)O)cc(OC)c1C` [Example 125, [(2-{[3-(3,5-difluorophenyl)propyl](3,5-dimethoxy-4-methylbenzoyl)amino}ethyl)sulfanyl]acetic Acid], in assay [1], the 50% inhibitory concentration (IC50) is more than 10 µM and the Emax was 53%. Besides, at LPAR1, the IC50 is more than 10 µM and the Emax worked out at 32%.

Take `COc1cc(C(=O)N(CCCCC(=O)O)CCCc2cc(F)cc(F)c2)cc(OC)c1C` [Example 126, 5-{[3-(3,5-difluorophenyl)propyl](3,5-dimethoxy-4-methylbenzoyl)amino}pentanoic Acid]: in assay [1], the IC50 stood at 3.89 µM and the Emax was 75%. Further, at LPAR1, the concentration for half-maximal inhibition (IC50) turned out to be 0.119 µM and the Emax was determined as 74%.

In the case of `COc1cc(C(=O)N(CCCc2cc(Cl)cc(Cl)c2)CCOCC(=O)O)cc(OC)c1C` [Example 127, (2-{[3-(3,5-dichlorophenyl)propyl](3,5-dimethoxy-4-methylbenzoyl)amino}ethoxy)acetic Acid], the IC50 (in assay [1]; at LPAR1) was more than 10 µM each time. For the same compound, the Emax in assay [1] was 14%; on LPAR1, 7%.

With `COc1cc(OC)cc(C(=O)N(CCCCC(=O)O)CCCc2ccc(C)o2)c1` [Example 133, 5-{(3,5-dimethoxybenzoyl)[3-(5-methylfuran-2-yl)propyl]amino}pentanoic Acid], in assay [1], the half-maximal inhibitory concentration (IC50) is 3.19 µM and the Emax came to 68%. Besides, at LPAR1, the half-inhibitory concentration (IC50) worked out at 0.046 µM and the Emax came to 78%.

For `COc1cc(OC)cc(C(=O)N(CCCCC(=O)O)CCCc2ccccc2Cl)c1` [Example 135, 5-{[3-(2-chlorophenyl)propyl](3,5-dimethoxybenzoyl)amino}pentanoic Acid], the IC50 (in assay [1]; at LPAR1) was more than 10 µM in each case. In addition, the Emax in assay [1] worked out at 25%; at LPAR1 it was 32%.
